From US20240043410A1, “SULPHAMOYL UREA DERIVATIVES CONTAINING ALKYL-OXACYCLOALKYL MOIETY AND USES THEREOF” (NodThera Limited, priority 2020, published 2024) come the findings set out here.

Structures can show the parent of a compound that is named as a salt. Bounds are passed on as bounds.

This test has as its system IL-1β release upon NLRP3 activation in peripheral blood mononuclear cells (PBMC). Briefly: PBMC IC50 Determination Assay. Format: cell-based. Conditions: Homo sapiens; LPS-primed PBMC stimulated with ATP (5 mM) or nigericin (10 μM); IL-1β by ELISA (Protocol A) or HTRF (Protocol B); salts tested. On the procedure:
PBMC IC50 Determination Assay. The compounds of the present disclosure were tested for their inhibitory activity against IL-1β release upon NLRP3 activation in peripheral blood mononuclear cells (PBMC).
Protocol A. PBMC were isolated from buffy coats by density gradient centrifugation on Histopaque-1077 (Sigma, cat no. 10771). Isolated cells were seeded into the wells of a 96-well plate and incubated for 3 h with lipopolysaccharide (LPS). Following medium exchange, the compounds of the present disclosure were added (a single compound per well) and the cells were incubated for 30 min. Next, the cells were stimulated either with ATP (5 mM) or nigericin (10 μM) for 1 h and the cell culture media from the wells were collected for further analysis. The release of IL1-β into the media was determined by a quantitative detection of IL-1β in the media using an IL-1β enzyme-linked immunosorbent assay (ELISA) Ready-SET-Go!, eBioscience cat. No. 88-7261-88. Briefly, in a first step, high affinity binding plates (Corning, Costar 9018 or NUNC Maxisorp Cat No. 44-2404) were coated overnight at 4° C. with specific capture antibody included in the kit (anti-human IL-1β ref. 14-7018-68). Subsequently, plates were blocked with blocking buffer for 1 h at room temperature (rt) and after washing with a buffer (PBS with 0.05% Tween-20) incubated with protein standard and culture media. After 2 h of incubation at rt, plates were washed and incubated with biotinylated detection antibody included in the kit (anti-human IL-1β Biotin ref. 33-7110-68) for 1 h at rt. Plates were washed and incubated with HRP-streptavidin for 30 min at rt and washed again. The signal was developed after addition of 3,3′,5,5′-tetramethylbenzidine-peroxidase (TMB) until colour appeared and the reaction was stopped by 2 M H2SO4. A microplate spectrophotometer (BioTek) was used to detect signals with 450 nm. The detection range of IL-1β 3 ELISA was 2-150 ng/mL.
Protocol B. PBMC were isolated from buffy coats by density gradient centrifugation on Histopaque-1077 (Sigma, cat no. 10771). Isolated cells were seeded into the wells (280,000 cells/well) of a 96-well plate and incubated for 3 h with lipopolysaccharide (LPS, 1 μg/mL diluted 1000× from a 1 mg/mL stock solution). The compounds of the present disclosure were added (a single compound per well) and the cells were incubated for 30 min. Next, the cells were stimulated with ATP (5 mM final concentration diluted 20× from a 100 mM stock solution) for 1 h and the cell culture media from the wells were collected for further analysis. The release of IL-1β into the media was determined by quantitative detection of IL-1 in the media using HTRF®, CisBio cat. No. 62HIL1BPEH. Briefly, cell culture supernatant were dispensed directly into the assay plate containing antibodies labelled with the HTRF® donor and acceptor. A microplate spectrophotometer (BMG) was used to detect signals at 655 nm and 620 nm. The detection range of IL-1β HTRF® was […].
On the technique in general: ELISA stands for enzyme-linked immunosorbent assay.

In general, IC50 refers to the point on the concentration scale where inhibition reaches its midpoint. Consider `Cn1cc(N(C[C@H]2C[C@H](O)CO2)S(=O)(=O)NC(=O)Nc2c3c(cc4c2CCC4)CCC3)cn1` [Compound 2B, 1-(1,2,3,5,6,7-Hexahydro-s-indacen-4-yl)-3-[[(2R,4S)-4-hydroxytetrahydro-furan-2-yl]methyl-(1-methylpyrazol-4-yl)sulfamoyl]urea, sodium salt], for which the IC50 lay within 100 to 1000 nM.
In the case of `Cn1cc(N(CC2CCCO2)S(=O)(=O)NC(=O)Nc2c3c(cc4c2CCC4)CCC3)cn1` (stereo not shown) [Compound 1], the IC50 was under 100 nM.
In the case of `O=C(Nc1c2c(cc3c1CCC3)CCC2)NS(=O)(=O)N(C[C@@H]1CCCO1)c1cn[nH]c1` [Compound 8A, 1-(1,2,3,5,6,7-hexahydro-s-indacen-4-yl)-3-[1H-pyrazol-4-yl-[[(2S)-tetrahydrofuran-2-yl]methyl]sulfamoyl]urea] it was under 100 nM; in that of `Cn1cc(N(C[C@@H]2C[C@H](O)CO2)S(=O)(=O)NC(=O)Nc2c3c(cc4c2CCC4)CCC3)cn1` (relative stereo) [Compound 2A, Sodium ((1,2,3,5,6,7-hexahydro-s-indacen-4-yl)carbamoyl)(N-((cis-4-hydroxy-tetrahydrofuran-2-yl)methyl)-N-(1-methyl-1H-pyrazol-4-yl)sulfamoyl)amide], under 100 nM.
